Experimental data reported in PMC11217338 (Frontiers in Endocrinology, 2024).

Target: T1, rat PXR (rPXR) (Rattus norvegicus, UniProt Q9R1A7)
T1 construct: gene Nr1i2
T1 sequence (Q9R1A7 143-431 limits assumed): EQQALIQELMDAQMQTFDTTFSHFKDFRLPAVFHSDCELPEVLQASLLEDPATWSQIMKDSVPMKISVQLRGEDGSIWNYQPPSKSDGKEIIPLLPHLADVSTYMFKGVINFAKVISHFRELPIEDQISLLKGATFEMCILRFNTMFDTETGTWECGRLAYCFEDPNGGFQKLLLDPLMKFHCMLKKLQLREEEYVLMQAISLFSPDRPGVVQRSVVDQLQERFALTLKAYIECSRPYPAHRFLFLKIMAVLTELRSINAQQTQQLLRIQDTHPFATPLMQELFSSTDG
Test: GAL4-LBD luciferase reporter assay in HepG2 cells, […] CBD
Format: cell-based

C=C(C)[C@@H]1CCC(C)=C[C@H]1c1c(O)cc(CCCCC)cc1O [CBD, Cannabidiol]
GAL4-LBD luciferase reporter assay in HepG2 cells, 10 μM CBD: Except for PXRs, CBD had little effect on activation of the other tested nuclear receptors
